These compounds were tested on Aedes aegypti mosquitoes (assay: in vitro Gupta box landing assay (insect repellency)). Conditions: 20 min; 1.0% (w/v) in IPA, 25 μL on Baudruche membrane; landings of female Aedes aegypti over 20 min vs IPA control.
Protocol: The products of Examples 1-15 were evaluated for insect repellency against Aedes aegypti mosqutioes in the in vitro Gupta box landing assay. In this method a chamber contained 5 wells, each covered by a Baudruche (animal intestine) membrane. Each well was filled with bovine blood containing sodium citrate (to prevent clotting) and ATP (72 mg ATP disodium salt per 26 ml of blood), and heated to 37° C. A volume of 25 μL of isopropyl alcohol (IPA) containing one test specimen or control was applied to each membrane. The concentrations were 1.0% (w/v) in IPA. The negative control was membrane surface treated with neat IPA, and the positive control was a 1.0% (w/v) solution of DEET.
After 5 min, approximately 250 4-day-old female Aedes aegypti mosquitoes were introduced into the chamber. The number of mosquitoes probing the membranes for each treatment was recorded at 2 min intervals over 20 min. The results obtained in this manner with respect to the compounds of Examples 1˜12 are depicted, respectively, in FIGS. 1-12 (labeled as Examples 16˜27) wherein each datum represents the mean of five replicate experiments.
where C=the total number of landings on the IPA control well, and T=the total number of landings on the test solution well. The % mean repellencies at 1% (w/v) with respect to the compounds of Examples 1˜15 are depicted in Table 2, wherein R refers to the substituent on nepetalactam.

Question: How did the pest or weed control at 10000 µg/mL turn out when CC1=CNC(=O)[C@H]2[C@@H]1CC[C@@H]2C [II, (4aS,7S,7aR)-4,7-dimethyl-2,4a,5,6,7,7a-hexahydro-1H-cyclopenta [c]pyridin-1-one] was run?
Answer: 66%

Question: Which pest or weed control at 10000 µg/mL does the source give for CC1=CN(C)C(=O)[C@H]2[C@@H]1CC[C@@H]2C [IIIa, (4aS,7S,7aR)-2,4,7-trimethyl-2,4a,5,6,7,7a-hexahydro-1H-cyclopenta[c]pyridin-1-one] here?
Answer: 94.8%

Question: With CCN1C=C(C)[C@H]2CC[C@H](C)[C@H]2C1=O [IIIb, (4aS,7S,7aR)-2-ethyl-4,7-dimethyl-2,4a,5,6,7,7a-hexahydro-1H-cyclopenta[c]pyridin-1-one] as the compound, how does the pest or weed control at 10000 µg/mL read?
Answer: 97.9%

Question: For CCCN1C=C(C)[C@H]2CC[C@H](C)[C@H]2C1=O [IIIc, (4aS,7S,7aR)-2-n-propyl-4,7-dimethyl-2,4a,5,6,7,7a-hexahydro-1H-cyclopenta[c]pyridin-1-one], which pest or weed control at 10000 µg/mL is on record?
Answer: 99.8%

Question: For CCCCN1C=C(C)[C@H]2CC[C@H](C)[C@H]2C1=O [IIId, (4aS,7S,7aR)-2-n-butyl-4,7-dimethyl-2,4a,5,6,7,7a-hexahydro-1H-cyclopenta[c]pyridin-1-one], which pest or weed control at 10000 µg/mL is on record?
Answer: 97.3%

Question: For CCCCCN1C=C(C)[C@H]2CC[C@H](C)[C@H]2C1=O [IIIe, (4aS,7S,7aR)-2-n-pentyl-4,7-dimethyl-2,4a,5,6,7,7a-hexahydro-1H-cyclopenta[c]pyridin-1-one], which pest or weed control at 10000 µg/mL is on record?
Answer: 97.5%

Question: With CCCCCCN1C=C(C)[C@H]2CC[C@H](C)[C@H]2C1=O [IIIf, (4aS,7S,7aR)-2-n-hexyl-4,7-dimethyl-2,4a,5,6,7,7a-hexahydro-1H-cyclopenta[c]pyridin-1-one] as the compound, how does the pest or weed control at 10000 µg/mL read?
Answer: 97.2%

Question: For CCCCCCCCN1C=C(C)[C@H]2CC[C@H](C)[C@H]2C1=O [IIIg, (4aS,7S,7aR)-2-n-octyl-4,7-dimethyl-2,4a,5,6,7,7a-hexahydro-1H-cyclopenta[c]pyridin-1-one], which pest or weed control at 10000 µg/mL is on record?
Answer: 93.2%

Question: For CC1=CN(C2CCCCC2)C(=O)[C@H]2[C@@H]1CC[C@@H]2C [IIIh, (4aS,7S,7aR)-2-n-cyclohexyl-4,7-dimethyl-2,4a,5,6,7,7a-hexahydro-1H-cyclopenta[c]pyridin-1-one], which pest or weed control at 10000 µg/mL is on record?
Answer: 98.9%

Question: CC1=CN(C(C)C)C(=O)[C@H]2[C@@H]1CC[C@@H]2C [IIIi, (4aS,7S,7aR)-2-n-isopropyl-4,7-dimethyl-2,4a,5,6,7,7a-hexahydro-1H-cyclopenta[c]pyridin-1-one] was tested. Which pest or weed control at 10000 µg/mL did it give?
Answer: 94.7%

Question: Which pest or weed control at 10000 µg/mL does the source give for C=CCN1C=C(C)[C@H]2CC[C@H](C)[C@H]2C1=O [IIIj, (4aS,7S,7aR)-2-n-allyl-4,7-dimethyl-2,4a,5,6,7,7a-hexahydro-1H-cyclopenta[c]pyridin-1-one] here?
Answer: 78.1%

Question: How did the pest or weed control at 10000 µg/mL turn out when C#CCN1C=C(C)[C@H]2CC[C@H](C)[C@H]2C1=O [IIIk, (4aS,7S,7aR)-2-n-propargyl-4,7-dimethyl-2,4a,5,6,7,7a-hexahydro-1H-cyclopenta[c]pyridin-1-one] was run?
Answer: 95.6%

Question: With CC1=CN(c2ccccc2)C(=O)[C@H]2[C@@H]1CC[C@@H]2C [Va, (4aS,7S,7aR)-4,7-dimethyl-2-phenyl-2,4a,5,6,7,7a-hexahydro-1H-cyclopenta[c]pyridin-1-one] as the compound, how does the pest or weed control at 10000 µg/mL read?
Answer: 93.1%

Question: How did the pest or weed control at 10000 µg/mL turn out when CC1=CN(c2ccc(Cl)cc2)C(=O)[C@H]2[C@@H]1CC[C@@H]2C [Vb, (4aS,7S,7aR)-2-(4-chlorophenyl)-4,7-dimethyl-2,4a,5,6,7,7a-hexahydro-1H-cyclopenta[c]pyridin-1-one] was run?
Answer: 75.3%

Question: For CC1=CN(c2ccc(Br)cc2)C(=O)[C@H]2[C@@H]1CC[C@@H]2C [Vc, (4aS,7S,7aR)-2-(4-bromophenyl)-4,7-dimethyl-2,4a,5,6,7,7a-hexahydro-1H-cyclopenta[c]pyridin-1-one], which pest or weed control at 10000 µg/mL is on record?
Answer: 41.5%

Source: patent US20060148842A1, “Nepetalactams and N-substituted derivatives thereof” (priority 2004, published 2006)
